# Measured values reported in PubChem BioAssay AID212 (DTP/NCI, 2004).
# Where “and” joins values, the source holds several entries; their conditions need not be identical. Equal values may be shown once. Results filed as inconclusive are left out.
# System: BDF1 mice, colon carcinoma 38 sc, T/C %
# Assay: NCI In Vivo Anticancer Drug Screen. Data for tumor model Colon Carcinoma 38 (subcutaneous) in B6D2F1 (BDF1) mice
# Conditions: endpoint: median tumor weight (est.), schedule: Q07DX002 (ip), higher = larger tumour
# Procedure: The antitumor activity of compounds was measured in mice bearing transplantable tumors. Survival or tumor size were measured and the results are expressed as the measurement made in the treated group (T) divided by the measurement made in the vehicle treated control group (C). The tumor model used in this assay is Colon Carcinoma 38 (subcutaneous) in B6D2F1 (BDF1) mice
# [1] = dose: 12.5 mg/kg/injection, vehicle: saline with Tween-80
# [2] = dose: 25.0 mg/kg/injection, vehicle: saline with Tween-80
# [3] = dose: 50.0 mg/kg/injection, vehicle: saline with Tween-80
# [4] = dose: 100.0 mg/kg/injection, vehicle: saline with Tween-80
# [5] = dose: 200.0 mg/kg/injection, vehicle: saline with Tween-80
# [6] = dose: 400.0 mg/kg/injection, vehicle: saline with Tween-80
# [7] = dose: 25.0 mg/kg/injection, vehicle: Klucel (hydroxypropylcellulose) (HPC)
# [8] = dose: 50.0 mg/kg/injection, vehicle: Klucel (hydroxypropylcellulose) (HPC)
# [9] = dose: 100.0 mg/kg/injection, vehicle: Klucel (hydroxypropylcellulose) (HPC)
# [10] = dose: 200.0 mg/kg/injection, vehicle: Klucel (hydroxypropylcellulose) (HPC)
# [11] = dose: 400.0 mg/kg/injection, vehicle: Klucel (hydroxypropylcellulose) (HPC)
# [12] = dose: 12.5 mg/kg/injection, vehicle: saline
# [13] = dose: 25.0 mg/kg/injection, vehicle: saline
# [14] = dose: 100.0 mg/kg/injection, vehicle: saline
# [15] = dose: 800.0 mg/kg/injection, vehicle: Klucel (hydroxypropylcellulose) (HPC)
structure (smiles),measurement,setting,value
C[CH2][Ge]([CH2]C)[CH2]C.C[CH2][Ge]([CH2]C)[CH2]C.C[CH2][Ge]([CH2]C)[O][Ge]([CH2]C)[CH2]C,T/C,[1],80 % of control
same,T/C,[2],90 % of control
same,T/C,[3],87 % of control
same,T/C,[4],68 % of control
same,T/C,[5],81 % of control and 95 % of control
same,T/C,"dose: 800.0 mg/kg/injection, vehicle: saline with Tween-80",90 % of control
CC(C)(C)c1ccc(CN2CCN(C(c3ccccc3)c3ccc(Cl)cc3)CC2)cc1 (configuration not stated),T/C,"dose: 8.0 mg/kg/injection, vehicle: Klucel (hydroxypropylcellulose) (HPC)",92 % of control
same,T/C,"dose: 16.0 mg/kg/injection, vehicle: Klucel (hydroxypropylcellulose) (HPC)",34 % of control
same,T/C,"dose: 32.0 mg/kg/injection, vehicle: Klucel (hydroxypropylcellulose) (HPC)",82 % of control
same,T/C,"dose: 64.0 mg/kg/injection, vehicle: Klucel (hydroxypropylcellulose) (HPC)",89 % of control
same,T/C,"dose: 256.0 mg/kg/injection, vehicle: Klucel (hydroxypropylcellulose) (HPC)",87 % of control
CC1(CO)C(O)CCC2(C)C1CCC1CC3CC12CCC3(O)CO (configuration not stated),T/C,[1],120 % of control
same,T/C,[2],103 % of control
same,T/C,[3],100 % of control
same,T/C,[4],124 % of control
same,T/C,[5],77 % of control
same,T/C,[6],89 % of control
O=Cc1ccccc1,T/C,[7],77 % of control
same,T/C,[2],69 % of control
same,T/C,[8],83 % of control
same,T/C,[3],77 % of control
same,T/C,[9],98 % of control
same,T/C,[4],108 % of control
same,T/C,[10],60 % of control
same,T/C,[5],112 % of control
same,T/C,[11],97 % of control
C=C1C(C)C2C(Cc3ccccc3)NC(=O)C23C(OC(C)=O)/C=C/C(C)(O)CC(C)C/C=C/C3C1O (configuration not stated),T/C,"dose: 0.75 mg/kg/injection, vehicle: Klucel (hydroxypropylcellulose) (HPC)",86 % of control
same,T/C,"dose: 1.5 mg/kg/injection, vehicle: Klucel (hydroxypropylcellulose) (HPC)",115 % of control
same,T/C,"dose: 3.0 mg/kg/injection, vehicle: Klucel (hydroxypropylcellulose) (HPC)",77 % of control
same,T/C,"dose: 6.0 mg/kg/injection, vehicle: Klucel (hydroxypropylcellulose) (HPC)",100 % of control
same,T/C,"dose: 12.0 mg/kg/injection, vehicle: Klucel (hydroxypropylcellulose) (HPC)",95 % of control
same,T/C,"dose: 24.0 mg/kg/injection, vehicle: Klucel (hydroxypropylcellulose) (HPC)",90 % of control
O=c1c(O)c(-c2cc(O)c(O)c(O)c2)oc2cc(O)cc(O)c12,T/C,"dose: 6.25 mg/kg/injection, vehicle: other",75 % of control
same,T/C,"dose: 12.5 mg/kg/injection, vehicle: other",87 % of control
same,T/C,[1],152 % of control and 172 % of control
same,T/C,"dose: 25.0 mg/kg/injection, vehicle: other",73 % of control
same,T/C,[2],113 % of control and 107 % of control
same,T/C,"dose: 50.0 mg/kg/injection, vehicle: other",96 % of control
same,T/C,[3],120 % of control and 107 % of control
same,T/C,"dose: 100.0 mg/kg/injection, vehicle: other",65 % of control
same,T/C,[4],161 % of control and 214 % of control
same,T/C,"dose: 200.0 mg/kg/injection, vehicle: other",98 % of control
same,T/C,[5],187 % of control
same,T/C,"dose: 400.0 mg/kg/injection, vehicle: other",77 % of control
same,T/C,[6],116 % of control and 100 % of control
CN(C)CC(Cl)CCl (configuration not stated),T/C,[12],118 % of control
same,T/C,[13],105 % of control
same,T/C,[14],115 % of control
same,T/C,"dose: 200.0 mg/kg/injection, vehicle: saline",118 % of control
same,T/C,"dose: 400.0 mg/kg/injection, vehicle: saline",88 % of control
COc1cc([C@@H]2c3cc4c(c(O)c3C[C@H]3COC(=O)[C@@H]32)OCO4)cc(OC)c1O,T/C,"dose: 0.5 mg/kg/injection, vehicle: saline",78 % of control
same,T/C,"dose: 1.0 mg/kg/injection, vehicle: saline",65 % of control
same,T/C,"dose: 2.0 mg/kg/injection, vehicle: saline",81 % of control
same,T/C,"dose: 4.0 mg/kg/injection, vehicle: saline",123 % of control
Cc1ccc(C2NC(=S)N3C(c4ccc(C)cc4)NC(=S)N23)cc1 (configuration not stated),T/C,[7],94 % of control
same,T/C,[8],79 % of control
same,T/C,[9],83 % of control
same,T/C,[10],88 % of control
same,T/C,[11],89 % of control
same,T/C,[15],60 % of control
Cc1noc(N)c1N,T/C,"dose: 25.0 mg/kg/injection, vehicle: water",79 % of control
same,T/C,"dose: 50.0 mg/kg/injection, vehicle: water",82 % of control
same,T/C,"dose: 100.0 mg/kg/injection, vehicle: water",78 % of control
same,T/C,"dose: 200.0 mg/kg/injection, vehicle: water",101 % of control
same,T/C,"dose: 400.0 mg/kg/injection, vehicle: water",74 % of control
same,T/C,"dose: 800.0 mg/kg/injection, vehicle: water",95 % of control
C1CNCOC1,T/C,[13],108 % of control
same,T/C,[14],115 % of control
O=C(CC(=O)C(F)(F)F)c1csc2ccccc12,T/C,"dose: 12.5 mg/kg/injection, vehicle: Klucel (hydroxypropylcellulose) (HPC)",110 % of control and 90 % of control
same,T/C,[8],76 % of control
same,T/C,[10],62 % of control
O=C1C=C(C2OC(CO)C(O)C2O)C(=O)N1 (configuration not stated),T/C,"dose: 1.56 mg/kg/injection, vehicle: saline",66 % of control
same,T/C,"dose: 3.12 mg/kg/injection, vehicle: saline",56 % of control
same,T/C,"dose: 6.25 mg/kg/injection, vehicle: saline",70 % of control
same,T/C,[12],113 % of control
same,T/C,[13],83 % of control
CN(C)c1ccc2c(SCC(=O)OCC(=O)[C@@]3(O)CC[C@H]4[C@@H]5CCC6=CC(=O)C=C[C@]6(C)[C@H]5C(=O)C[C@@]43C)c3ccc(N(C)C)cc3nc2c1,T/C,[8],82 % of control
same,T/C,[9],69 % of control
same,T/C,[10],56 % of control
same,T/C,[11],77 % of control
same,T/C,[15],62 % of control
Cc1cc2c(C(C)C)c(O)c(O)c(C=O)c2c(O)c1-c1c(C)cc2c(C(C)C)c(O)c(O)c(C=O)c2c1O,T/C,"dose: 1.5 mg/kg/injection, vehicle: saline with Tween-80",117 % of control
same,T/C,"dose: 3.0 mg/kg/injection, vehicle: saline with Tween-80",97 % of control
same,T/C,"dose: 6.0 mg/kg/injection, vehicle: saline with Tween-80",107 % of control
same,T/C,"dose: 12.0 mg/kg/injection, vehicle: saline with Tween-80",53 % of control
same,T/C,"dose: 24.0 mg/kg/injection, vehicle: saline with Tween-80",96 % of control
N#Cc1nc(C#N)c(Sc2ccccc2)c(Sc2ccccc2)c1Sc1ccccc1,T/C,"dose: 6.25 mg/kg/injection, vehicle: saline with Tween-80",93 % of control
same,T/C,[1],30 % of control
same,T/C,[2],67 % of control
same,T/C,[3],78 % of control
same,T/C,[4],92 % of control
same,T/C,[5],54 % of control
